Patent publication US20230271964A1, “5-AMINO-8-(4-PYRIDYL)-[1,2,4]TRIAZOLO[4,3-C]PYRIMIDIN-3-ONE COMPOUNDS FOR USE AGAINST CANCER” (ASTRAZENECA AB, priority 2020, published 2023)

Columns and labels:
[1] = molecular target: human adenosine A2A receptor (Homo sapiens (Human), UniProt P29274); experiment: Adenosine receptor inhibition binding assay, [3H]ZM241385, HEK293 A2A receptor membranes; details: 1 nM [3H]ZM241385, HEK293-hA2A membranes, 25° C., 1 h, Ki from IC50 by Cheng-Prusoff; for Ki: read-out: A2A pKi (converted)
human adenosine A2A receptor, sequence (P29274 whole entry): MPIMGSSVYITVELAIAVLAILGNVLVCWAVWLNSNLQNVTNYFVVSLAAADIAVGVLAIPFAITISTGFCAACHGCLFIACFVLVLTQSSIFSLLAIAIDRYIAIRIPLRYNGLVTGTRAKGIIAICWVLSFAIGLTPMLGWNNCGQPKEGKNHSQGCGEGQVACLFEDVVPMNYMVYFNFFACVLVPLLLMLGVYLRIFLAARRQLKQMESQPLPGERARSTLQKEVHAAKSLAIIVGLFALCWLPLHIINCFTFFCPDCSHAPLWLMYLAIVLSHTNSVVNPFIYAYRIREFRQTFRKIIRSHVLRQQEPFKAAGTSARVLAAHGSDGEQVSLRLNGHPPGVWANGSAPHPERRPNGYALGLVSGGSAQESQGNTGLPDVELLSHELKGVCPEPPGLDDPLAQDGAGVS
Description: (§1) Inhibition binding assays were performed using 0.2 µg of membranes prepared from HEK293 cells infected with BacMam human adenosine A2A receptor or 1.4 µg of membranes prepared from HEK293 cells infected with BacMam human adenosine A1 receptor. Membranes were incubated in 50 mM Tris-HCl (HEK293-hA2A; pH 7.4) or 50 mM Tris-HCl, 100 mM NaCl, 10 mM MgCl2 (CHO-hA1; pH 7.4) in the presence of varying concentrations of test compound and 1 nM [^3H]ZM241385 (HEK293-hA2A) or [^3H]DPCPX (CHO-hA1) at 25° C. for 1 h. The assay was then terminated by rapid filtration onto GF/B grade Unifilter plates using a TomTec cell harvester, followed by 5 × 0.5 ml washes with ddH2O. Nonspecific binding was defined in the presence of 1 µM CGS 15943 (HEK293-hA2A) or 1 µM DPCPX (CHO-hA1). Bound radioactivity was determined by liquid scintillation counting and inhibition curves were analysed using a four-parameter logistic equation. IC50 values were converted to Ki values with the Cheng-Prusoff equation using a KD value derived from saturation binding studies.

[2] = molecular target: human adenosine A1 receptor (Homo sapiens (Human), UniProt P30542); experiment: Adenosine receptor inhibition binding assay, [3H]DPCPX, A1 receptor membranes; details: 1 nM [3H]DPCPX, 25° C., 1 h, Ki from IC50 by Cheng-Prusoff; for Ki: read-out: A1 pKi (converted)
human adenosine A1 receptor, sequence (P30542 whole entry): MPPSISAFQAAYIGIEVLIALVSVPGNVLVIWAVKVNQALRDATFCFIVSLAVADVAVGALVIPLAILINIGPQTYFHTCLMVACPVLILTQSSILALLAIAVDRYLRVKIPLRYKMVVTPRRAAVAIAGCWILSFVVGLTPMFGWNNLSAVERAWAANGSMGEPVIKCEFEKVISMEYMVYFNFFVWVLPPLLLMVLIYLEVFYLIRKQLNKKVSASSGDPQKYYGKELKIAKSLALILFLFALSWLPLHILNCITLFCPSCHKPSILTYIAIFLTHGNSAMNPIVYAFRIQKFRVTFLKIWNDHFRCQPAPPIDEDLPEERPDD
Description: as §1

A2A pKi [1] | A1 pKi [2] | Ki [1] | Ki [2] | Structure (SMILES)
8.9 | <6.0 |  |  | Cc1cc(-c2c(N3CCCCC3)nc(N)n3c(=O)n(Cc4ncoc4C)nc23)cc(C)n1 [Example 4-1, 5-amino-8-(2,6-dimethyl-4-pyridyl)-2-[(5-methyloxazol-4-yl)methyl]-7-(1-piperidyl)-[1,2,4]triazolo[4,3-c]pyrimidin-3-one]
9.9 | 6.8 |  |  | Cc1ocnc1Cn1nc2c(-c3cc(Cl)nc(CO)c3)c(-c3ccc(F)cc3)nc(N)n2c1=O [Example 1-59, 5-amino-8-[2-chloro-6-(hydroxymethyl)-4-pyridyl]-7-(4-fluorophenyl)-2-[(5-methyloxazol-4-yl)methyl]-[1,2,4]triazolo[4,3-c]pyrimidin-3-one]
8.2 | 6.1 |  |  | Cc1cc(-c2c(-c3ccccc3)nc(N)n3c(=O)n(CCc4nccn4C)nc23)cc(C)n1 [Example 1-2, 5-amino-8-(2,6-dimethyl-4-pyridyl)-2-[2-(1-methylimidazol-2-yl)ethyl]-7-phenyl-[1,2,4]triazolo[4,3-c]pyrimidin-3-one]
7.8 | 6.1 |  |  | Cc1cc(-c2c(-c3ccccc3)nc(N)n3c(=O)n(C4CCN(C)C4)nc23)cc(C)n1 (stereo not drawn) [Example 2-3, 5-amino-8-(2,6-dimethyl-4-pyridyl)-2-(1-methylpyrrolidin-3-yl)-7-phenyl-[1,2,4]triazolo[4,3-c]pyrimidin-3-one]
9.0 | 5.5 |  |  | COc1cc(-c2c(-c3ccc(F)cc3)nc(N)n3c(=O)n(C[C@H]4CCCO4)nc23)cc(CO)n1 [Example 2-37, 5-amino-7-(4-fluorophenyl)-8-[2-(hydroxymethyl)-6-methoxy-4-pyridyl]-2-[[(2R)-tetrahydrofuran-2-yl]methyl]-[1,2,4]triazolo[4,3-c]pyrimidin-3-one]
8.3 | 6.6 |  |  | Cc1cc(-c2c(-c3ccccc3)nc(N)n3c(=O)n(Cc4cnc[nH]4)nc23)cc(C)n1 [Example 1-23, 5-amino-8-(2,6-dimethyl-4-pyridyl)-2-(1H-imidazol-5-ylmethyl)-7-phenyl-[1,2,4]triazolo[4,3-c]pyrimidin-3-one]
6.9 | <5.7 |  |  | Cc1cc(-c2c(-c3ccccc3)nc(N)n3c(=O)n(CCN4CCCC4)nc23)cc(C)n1 [Example 2-26, 5-amino-8-(2,6-dimethyl-4-pyridyl)-7-phenyl-2-(2-pyrrolidin-1-ylethyl)-[1,2,4]triazolo[4,3-c]pyrimidin-3-one]
6.4 | <5.4 |  |  | Cc1cc(-c2c(-c3ccccc3)nc(N)n3c(=O)n(Cc4nn[nH]n4)nc23)cc(C)n1 [Example 1-26, 5-amino-8-(2,6-dimethyl-4-pyridyl)-7-phenyl-2-(2H-tetrazol-5-ylmethyl)-[1,2,4]triazolo[4,3-c]pyrimidin-3-one]
 |  | 0.0794 nM | 316 nM | [2H]c1c([2H])c([2H])c(-c2nc(N)n3c(=O)n(Cc4ncoc4C)nc3c2-c2cc(CO)nc(OC)c2)c([2H])c1[2H] [Example 1-63, 5-amino-8-[2-(hydroxymethyl)-6-methoxy-4-pyridyl]-2-[(5-methyloxazol-4-yl)methyl]-7-(2,3,4,5,6-pentadeuteriophenyl)-[1,2,4]triazolo[4,3-c]pyrimidin-3-one]
 |  | 0.316 nM | 158 nM | [2H]c1c([2H])c([2H])c(-c2nc(N)n3c(=O)n(C[C@H]4CCCO4)nc3c2-c2cc(Cl)nc(CO)c2)c([2H])c1[2H] [Example 2-33, 5-amino-8-[2-chloro-6-(hydroxymethyl)-4-pyridyl]-7-(2,3,4,5,6-pentadeuteriophenyl)-2-[[(2R)-tetrahydrofuran-2-yl]methyl]-[1,2,4]triazolo[4,3-c]pyrimidin-3-one]
7.9 | 6.6 |  |  | Cc1cc(-c2c(-c3ccccc3)nc(N)n3c(=O)n(CC4CCCN4C(=O)OC(C)(C)C)nc23)cc(C)n1 (stereo not drawn) [Example 2-4, tert-butyl 2-[[5-amino-8-(2,6-dimethyl-4-pyridyl)-3-oxo-7-phenyl-[1,2,4]triazolo[4,3-c]pyrimidin-2-yl]methyl]pyrrolidine-1-carboxylate]
8.4 | 6.8 |  |  | Cc1cc(-c2c(-c3ccccc3)nc(N)n3c(=O)n(Cc4c(C)ncn4C)nc23)cc(CO)n1 [Example 1-44, 5-amino-2-[(3,5-dimethylimidazol-4-yl)methyl]-8-[2-(hydroxymethyl)-6-methyl-4-pyridyl]-7-phenyl-[1,2,4]triazolo[4,3-c]pyrimidin-3-one]
6.4 | <5.4 |  |  | Cc1cc(-c2c(-c3ccccc3)nc(N)n3c(=O)n(CCc4nnn[nH]4)nc23)cc(C)n1 [Example 1-4, 5-amino-8-(2,6-dimethyl-4-pyridyl)-7-phenyl-2-[2-(1H-tetrazol-5-yl)ethyl]-[1,2,4]triazolo[4,3-c]pyrimidin-3-one]
8.5 | 6.3 |  |  | Cc1cc(-c2c(-c3ccccc3)nc(N)n3c(=O)n(C[C@@H]4C[C@H](F)CN4)nc23)cc(C)n1 [Example 2-20, 5-amino-8-(2,6-dimethyl-4-pyridyl)-2-[[(2S,4S)-4-fluoropyrrolidin-2-yl]methyl]-7-phenyl-[1,2,4]triazolo[4,3-c]pyrimidin-3-one]
 |  | 1.26 nM | 158 nM | [2H]c1c([2H])c([2H])c(-c2nc(N)n3c(=O)n(Cc4nccn4C)nc3c2-c2cc(C)nc(CO)c2)c([2H])c1[2H] [Example 1-48, 5-amino-8-[2-(hydroxymethyl)-6-methyl-4-pyridyl]-2-[(1-methylimidazol-2-yl)methyl]-7-(2,3,4,5,6-pentadeuteriophenyl)-[1,2,4]triazolo[4,3-c]pyrimidin-3-one]
9.4 | 6.3 |  |  | Nc1nc(-c2ccc(F)cc2)c(-c2cc(Cl)nc(CO)c2)c2nn(C[C@H]3CCCO3)c(=O)n12 [Example 2-34, 5-amino-8-[2-chloro-6-(hydroxymethyl)-4-pyridyl]-7-(4-fluorophenyl)-2-[[(2R)-tetrahydrofuran-2-yl]methyl]-[1,2,4]triazolo[4,3-c]pyrimidin-3-one]
9.1 | 7.0 |  |  | Cc1cc(-c2c(-c3ccccc3)nc(N)n3c(=O)n(Cc4ncco4)nc23)cc(C)n1 [Example 1-9, 5-amino-8-(2,6-dimethyl-4-pyridyl)-2-(oxazol-2-ylmethyl)-7-phenyl-[1,2,4]triazolo[4,3-c]pyrimidin-3-one]
7.4 | 6.1 |  |  | Cc1cc(-c2c(-c3ccccc3)nc(N)n3c(=O)n(CC4CCCN4)nc23)cc(C)n1 (stereo not drawn) [Example 2-5, 5-amino-8-(2,6-dimethyl-4-pyridyl)-7-phenyl-2-(pyrrolidin-2-ylmethyl)-[1,2,4]triazolo[4,3-c]pyrimidin-3-one]
8.0 | 6.6 |  |  | CCn1nccc1CCn1nc2c(-c3cc(C)nc(C)c3)c(-c3ccccc3)nc(N)n2c1=O [Example 1-7, 5-amino-8-(2,6-dimethyl-4-pyridyl)-2-[2-(2-ethylpyrazol-3-yl)ethyl]-7-phenyl-[1,2,4]triazolo[4,3-c]pyrimidin-3-one]
8.5 | 6.7 |  |  | Cc1cc(-c2c(-c3ccccc3)nc(N)n3c(=O)n(Cc4cocn4)nc23)cc(CO)n1 [Example 1-42, 5-amino-8-[2-(hydroxymethyl)-6-methyl-4-pyridyl]-2-(oxazol-4-ylmethyl)-7-phenyl-[1,2,4]triazolo[4,3-c]pyrimidin-3-one]
9.5 | 7.0 |  |  | Cc1cc(-c2c(-c3ccc(F)cc3)nc(N)n3c(=O)n(Cc4nc(C)oc4C)nc23)cc(C)n1 [Example 1-32, 5-amino-2-[(2,5-dimethyloxazol-4-yl)methyl]-8-(2,6-dimethyl-4-pyridyl)-7-(4-fluorophenyl)-[1,2,4]triazolo[4,3-c]pyrimidin-3-one]
8.9 | 6.8 |  |  | Cc1cc(-c2c(-c3ccccc3)nc(N)n3c(=O)n(Cc4ccon4)nc23)cc(C)n1 [Example 1-13, 5-amino-8-(2,6-dimethyl-4-pyridyl)-2-(isoxazol-3-ylmethyl)-7-phenyl-[1,2,4]triazolo[4,3-c]pyrimidin-3-one]
9.6 | 7.2 |  |  | Cc1cc(-c2c(-c3ccccc3)nc(N)n3c(=O)n(Cc4nonc4C)nc23)cc(C)n1 [Example 1-19, 5-amino-8-(2,6-dimethyl-4-pyridyl)-2-[(4-methyl-1,2,5-oxadiazol-3-yl)methyl]-7-phenyl-[1,2,4]triazolo[4,3-c]pyrimidin-3-one]
8.8 | 6.9 |  |  | Cc1cc(-c2c(-c3ccccc3)nc(N)n3c(=O)n(Cc4ncco4)nc23)cc(CO)n1 [Example 1-40, 5-amino-8-[2-(hydroxymethyl)-6-methyl-4-pyridyl]-2-(oxazol-2-ylmethyl)-7-phenyl-[1,2,4]triazolo[4,3-c]pyrimidin-3-one]
